From US20210308061A1, “PHARMACEUTICAL COMPOSITIONS WITH A CDC7 INHIBITOR” (TAKED PHARMACEUTICAL COMPANY LIMITED, priority 2018, published 2021)

Experiment: Powder flowability (flow factor FFc), FT4 powder rheometer
Assay type: physicochemical
Conditions: Compound 1 alone
Procedure: For the simulation of the DG process, compression pressure was adjusted to produce ribbon of different porosity. The flowability and compressibility of either preblend or milled ribbon was measured to evaluate the manufacturability of each formulation on the DC and the DG processes. The peak force value of compression and the vertical projection area of tooling were used to calculate the maximum compression pressure (CP). Powder flowability (i.e., flow factor (FFc)) was measured using the FT4 powder rheometer with the characterization method of 3 kPa pre-consolidation and 10 ml filling volume (Freeman Technology, Tewkesbury UK). This method was applied because it was representative of powder flow scenarios in most pharmaceutical manufacturing processes. The true density of powder was measured using the AccuPyc 1340 pycnometer (Micrometrics, Norcross Ga. USA) to calculate porosity of the ribbon.

SMILES: Cc1[nH]ncc1-c1cc2nc([C@@H]3CC4CCN3CC4)[nH]c(=O)c2s1 [Compound 1, 2-[(2S)-1-azabicyclo[2.2.2]oct-2-yl]-6-(3-methyl-1H-pyrazol-4-yl)thieno[3,2-d]pyrimidin-4(3H)-one]
- flow factor: about 2.3
